Laboratory results as given in ChEMBL document CHEMBL1201862, “PubChem BioAssay data set” (2004).
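Method: 48-hour compound exposure of cells in 96-well plates, five concentrations, linear interpolation of endpoints. At the GI50, growth is halved.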 The source made the active and inactive calls. Rule as the data show it: active = GI50 up to about 1.1 µM and inactive = higher.

Key:
Test in all cases: growth of human tumour cells (NCI), 48 h
UO-31 = tested on: UO-31
A549 = tested on: A549
OVCAR-3 = tested on: OVCAR-3
EKVX = tested on: EKVX
KM12 = tested on: KM12
SF-295 = tested on: SF-295
SK-MEL-5 = tested on: SK-MEL-5
ACHN = tested on: ACHN
SN12C = tested on: SN12C
HOP-92 = tested on: HOP-92
CAKI-1 = tested on: CAKI-1
SK-MEL-28 = tested on: SK-MEL-28
SF-268 = tested on: SF-268
NCI/ADR-RES = tested on: NCI/ADR-RES
HCT-15 = tested on: HCT-15
M14 = tested on: M14
IGROV-1 = tested on: IGROV-1
MDA-N = tested on: MDA-N
A498 = tested on: A498
OVCAR-4 = tested on: OVCAR-4
PC-3 = tested on: PC-3
MDA-MB-435 = tested on: MDA-MB-435
SNB-75 = tested on: SNB-75
MDA-MB-231 = tested on: MDA-MB-231
TK-10 = tested on: TK-10
SNB-19 = tested on: SNB-19
OVCAR-8 = tested on: OVCAR-8
OVCAR-5 = tested on: OVCAR-5
U-251 = tested on: U-251
HT-29 = tested on: HT-29
RXF 393 = tested on: RXF 393
DU-145 = tested on: DU-145
NCI-H23 = tested on: NCI-H23
SW-620 = tested on: SW-620
COLO 205 = tested on: COLO 205
RPMI-8226 = tested on: RPMI-8226
K562 = tested on: K562
Hs-578T = tested on: Hs-578T
CCRF-CEM = tested on: CCRF-CEM
SF-539 = tested on: SF-539
HCT-116 = tested on: HCT-116
NCI-H522 = tested on: NCI-H522
Malme-3M = tested on: Malme-3M
MCF7 = tested on: MCF7
UACC-257 = tested on: UACC-257
T47D = tested on: T47D
SK-OV-3 = tested on: SK-OV-3

| SMILES | GI50 (A549) | GI50 (OVCAR-3) | GI50 (EKVX) | GI50 (KM12) | GI50 (SN12C) | GI50 (SK-MEL-28) | GI50 (SF-268) | GI50 (HCT-15) | GI50 (M14) | GI50 (IGROV-1) | GI50 (MDA-N) | GI50 (PC-3) | GI50 (MDA-MB-435) | GI50 (SNB-19) | GI50 (OVCAR-5) | GI50 (U-251) | GI50 (RXF 393) | GI50 (DU-145) | GI50 (NCI-H23) | GI50 (SW-620) | other results |
| --- | --- | --- | --- | --- | --- | --- | --- | --- | --- | --- | --- | --- | --- | --- | --- | --- | --- | --- | --- | --- | --- |
| C[N+]12CCN(c3ccccc31)c1ccccc12.[O-][Cl+3]([O-])([O-])[O-] | 4.91 µM (inactive) | 3.44 µM (inactive) | 6.15 µM (inactive) | > 10 µM (inactive) | 7.28 µM (inactive) | > 10 µM (inactive) | 4.79 µM (inactive) | > 10 µM | > 10 µM (inactive) | > 10 µM (inactive) | 2.79 µM (inactive) | > 10 µM (inactive) | > 10 µM (inactive) | > 10 µM (inactive) | > 10 µM (inactive) | 6.01 µM (inactive) | > 10 µM (inactive) | > 10 µM (inactive) | 4.95 µM (inactive) | > 10 µM (inactive) | GI50 (UO-31): > 10 µM (inactive); GI50 (SF-295): 7.46 µM (inactive); GI50 (SK-MEL-5): 2.29 µM (inactive); GI50 (ACHN): > 10 µM (inactive); GI50 (HOP-92): > 10 µM (inactive); GI50 (CAKI-1): > 10 µM (inactive); GI50 (NCI/ADR-RES): > 10 µM (inactive); GI50 (A498): > 10 µM (inactive); GI50 (OVCAR-4): > 10 µM (inactive); GI50 (SNB-75): 6.28 µM (inactive); GI50 (MDA-MB-231): > 10 µM (inactive); GI50 (TK-10): > 10 µM (inactive); GI50 (OVCAR-8): 7.16 µM (inactive); GI50 (HT-29): > 10 µM (inactive); GI50 (COLO 205): 7.73 µM (inactive) |
| CCn1ncc(N=O)c1N | > 100 µM (inactive) | – | – | > 100 µM (inactive) | – | – | > 100 µM (inactive) | – | > 100 µM (inactive) | > 100 µM (inactive) | > 100 µM (inactive) | – | – | > 100 µM (inactive) | – | – | – | – | > 100 µM (inactive) | – | GI50 (RPMI-8226): > 100 µM (inactive); GI50 (K562): > 100 µM (inactive); GI50 (Hs-578T): > 100 µM (inactive); GI50 (CCRF-CEM): > 100 µM (inactive); GI50 (SF-539): > 100 µM (inactive); GI50 (HCT-116): > 100 µM (inactive); GI50 (COLO 205): > 100 µM (inactive); GI50 (NCI-H522): > 100 µM (inactive) |
| Cc1cc(/N=C/c2c(CO)cnc(C)c2O)c(/N=C/c2c(CO)cnc(C)c2O)cc1C | – | > 100 µM (inactive) | > 100 µM (inactive) | – | > 100 µM (inactive) | > 100 µM (inactive) | > 100 µM (inactive) | > 100 µM | – | – | – | > 100 µM (inactive) | > 100 µM (inactive) | – | > 100 µM (inactive) | > 100 µM (inactive) | > 100 µM (inactive) | > 100 µM (inactive) | > 100 µM (inactive) | > 100 µM (inactive) | GI50 (K562): > 100 µM (inactive); GI50 (Malme-3M): > 100 µM (inactive); GI50 (MCF7): 75.9 µM (inactive); GI50 (CCRF-CEM): 17 µM (inactive); GI50 (SF-539): 95.9 µM (inactive); GI50 (UACC-257): > 100 µM (inactive); GI50 (T47D): > 100 µM (inactive); GI50 (SK-OV-3): > 100 µM (inactive); GI50 (NCI-H522): 78.9 µM (inactive) |
